pEC50, pIC50: −log10 of the molar value.
Tests used:
[1] = Octanol-water partition coefficient, log P of the compound by HPLC method; format: physicochemical
[2] = biological target: T1, Oxysterols receptor LXR-alpha (Homo sapiens, UniProt Q13133); test: Agonist activity at human LXRalpha transfected in HEK293 cells after 24 hrs by luciferase reporter gene assay; format: cell-based
T1 sequence (Q13133 whole entry): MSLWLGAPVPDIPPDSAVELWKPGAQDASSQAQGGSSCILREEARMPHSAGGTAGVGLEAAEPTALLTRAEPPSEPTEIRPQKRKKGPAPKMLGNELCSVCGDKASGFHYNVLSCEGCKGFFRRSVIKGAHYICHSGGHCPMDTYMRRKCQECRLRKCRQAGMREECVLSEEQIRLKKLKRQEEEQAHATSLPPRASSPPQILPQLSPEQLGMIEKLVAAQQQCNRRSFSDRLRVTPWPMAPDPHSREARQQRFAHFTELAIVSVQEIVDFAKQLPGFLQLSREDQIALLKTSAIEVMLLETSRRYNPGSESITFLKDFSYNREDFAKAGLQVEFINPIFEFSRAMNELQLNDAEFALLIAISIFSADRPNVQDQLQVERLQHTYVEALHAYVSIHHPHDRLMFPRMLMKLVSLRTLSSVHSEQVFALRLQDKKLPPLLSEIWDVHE

[3] = biological target: T2, Oxysterols receptor LXR-beta (Homo sapiens, UniProt P55055); test: Agonist activity at human LXRbeta transfected in HEK293 cells after 24 hrs by luciferase reporter gene assay; format: cell-based
T2 sequence (P55055 whole entry): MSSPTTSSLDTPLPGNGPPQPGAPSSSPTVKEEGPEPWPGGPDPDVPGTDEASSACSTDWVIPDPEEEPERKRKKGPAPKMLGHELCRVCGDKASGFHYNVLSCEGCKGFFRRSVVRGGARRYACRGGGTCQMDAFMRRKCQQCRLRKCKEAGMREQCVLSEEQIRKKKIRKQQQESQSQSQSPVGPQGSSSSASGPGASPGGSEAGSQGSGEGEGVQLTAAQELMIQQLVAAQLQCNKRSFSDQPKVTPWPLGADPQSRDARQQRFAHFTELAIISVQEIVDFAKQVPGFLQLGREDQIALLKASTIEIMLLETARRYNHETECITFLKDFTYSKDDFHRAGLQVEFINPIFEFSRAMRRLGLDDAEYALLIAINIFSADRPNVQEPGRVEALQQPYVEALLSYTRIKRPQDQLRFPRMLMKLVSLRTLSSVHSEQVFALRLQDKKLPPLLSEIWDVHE

[4] = biological target: T3, Bile acid receptor (Homo sapiens, UniProt Q96RI1); test: Agonist activity at human FXR transfected in HEK293 cells after 24 hrs by luciferase reporter gene assay; format: cell-based
T3 sequence (Q96RI1 whole entry): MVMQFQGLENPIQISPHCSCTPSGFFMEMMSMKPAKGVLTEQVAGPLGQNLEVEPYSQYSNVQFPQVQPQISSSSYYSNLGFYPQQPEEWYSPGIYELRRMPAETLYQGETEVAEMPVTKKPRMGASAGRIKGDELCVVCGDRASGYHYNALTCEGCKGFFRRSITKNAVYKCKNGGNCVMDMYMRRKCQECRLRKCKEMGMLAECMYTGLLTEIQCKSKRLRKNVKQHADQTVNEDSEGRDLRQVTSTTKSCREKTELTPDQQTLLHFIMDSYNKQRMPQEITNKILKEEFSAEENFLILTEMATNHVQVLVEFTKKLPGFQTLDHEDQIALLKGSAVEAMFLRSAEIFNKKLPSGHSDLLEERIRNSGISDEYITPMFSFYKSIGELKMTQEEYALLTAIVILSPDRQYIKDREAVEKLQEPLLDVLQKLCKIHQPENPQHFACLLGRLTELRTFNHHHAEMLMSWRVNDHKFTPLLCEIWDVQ

[5] = biological target: T4, Nuclear receptor subfamily 1 group I member 2 (Homo sapiens, UniProt O75469); test: Agonist activity at human PXR transfected in HEK293 cells after 24 hrs by luciferase reporter gene assay; format: cell-based
T4 sequence (O75469 whole entry): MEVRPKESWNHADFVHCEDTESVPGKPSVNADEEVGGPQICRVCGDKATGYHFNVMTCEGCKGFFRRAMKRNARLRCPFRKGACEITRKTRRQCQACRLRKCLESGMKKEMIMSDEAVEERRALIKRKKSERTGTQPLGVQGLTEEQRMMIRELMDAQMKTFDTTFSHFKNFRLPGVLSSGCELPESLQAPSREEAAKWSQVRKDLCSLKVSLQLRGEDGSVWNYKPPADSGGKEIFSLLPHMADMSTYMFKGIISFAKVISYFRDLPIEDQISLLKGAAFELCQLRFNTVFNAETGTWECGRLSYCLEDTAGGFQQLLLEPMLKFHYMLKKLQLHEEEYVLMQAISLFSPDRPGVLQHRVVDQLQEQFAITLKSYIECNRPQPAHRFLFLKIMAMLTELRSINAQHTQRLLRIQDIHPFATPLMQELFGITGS

[6] = biological target: T5, Nuclear receptor ROR-alpha (Homo sapiens, UniProt P35398); test: Inverse agonist activity at human RORalpha transfected in HEK293 cells after 24 hrs by beta galactosidase luciferase reporter gene assay; format: cell-based; conditions: for IC50: hek293
T5 sequence (P35398 whole entry): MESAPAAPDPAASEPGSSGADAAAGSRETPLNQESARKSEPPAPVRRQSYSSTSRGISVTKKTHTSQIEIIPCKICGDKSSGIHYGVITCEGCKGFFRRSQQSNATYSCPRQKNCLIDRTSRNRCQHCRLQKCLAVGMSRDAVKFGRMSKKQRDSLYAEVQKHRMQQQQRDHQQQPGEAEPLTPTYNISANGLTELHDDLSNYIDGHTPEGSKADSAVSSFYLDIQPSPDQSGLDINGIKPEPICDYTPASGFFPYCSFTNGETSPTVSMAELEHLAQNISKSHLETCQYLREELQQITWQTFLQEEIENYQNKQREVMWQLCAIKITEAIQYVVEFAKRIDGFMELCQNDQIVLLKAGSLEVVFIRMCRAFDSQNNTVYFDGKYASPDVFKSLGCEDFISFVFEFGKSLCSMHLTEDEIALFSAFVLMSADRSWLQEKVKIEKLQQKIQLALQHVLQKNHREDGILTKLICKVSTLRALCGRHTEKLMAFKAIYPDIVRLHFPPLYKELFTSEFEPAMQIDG

[7] = biological target: T6, Nuclear receptor ROR-beta (Homo sapiens, UniProt Q92753); test: Inverse agonist activity at human RORbeta transfected in HEK293 cells after 24 hrs by beta galactosidase luciferase reporter gene assay; format: cell-based; conditions: for IC50: hek293
T6 sequence (Q92753 whole entry): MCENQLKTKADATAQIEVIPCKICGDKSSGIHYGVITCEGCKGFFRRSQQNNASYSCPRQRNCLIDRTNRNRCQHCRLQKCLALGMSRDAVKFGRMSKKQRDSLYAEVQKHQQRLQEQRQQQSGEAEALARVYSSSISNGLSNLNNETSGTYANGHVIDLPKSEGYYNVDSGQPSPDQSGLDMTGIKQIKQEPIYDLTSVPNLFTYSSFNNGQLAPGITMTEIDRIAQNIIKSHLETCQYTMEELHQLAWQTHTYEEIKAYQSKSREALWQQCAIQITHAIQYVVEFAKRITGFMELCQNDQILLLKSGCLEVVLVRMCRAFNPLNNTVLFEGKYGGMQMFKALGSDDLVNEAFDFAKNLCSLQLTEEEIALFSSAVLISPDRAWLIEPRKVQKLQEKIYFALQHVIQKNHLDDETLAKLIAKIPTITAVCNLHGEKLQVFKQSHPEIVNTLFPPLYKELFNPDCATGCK

[8] = biological target: T7, Nuclear receptor ROR-gamma (Homo sapiens, UniProt P51449); test: Inverse agonist activity at human RORgamma transfected in HEK293 cells after 24 hrs by beta galactosidase luciferase reporter gene assay; format: cell-based
T7 sequence (P51449 whole entry): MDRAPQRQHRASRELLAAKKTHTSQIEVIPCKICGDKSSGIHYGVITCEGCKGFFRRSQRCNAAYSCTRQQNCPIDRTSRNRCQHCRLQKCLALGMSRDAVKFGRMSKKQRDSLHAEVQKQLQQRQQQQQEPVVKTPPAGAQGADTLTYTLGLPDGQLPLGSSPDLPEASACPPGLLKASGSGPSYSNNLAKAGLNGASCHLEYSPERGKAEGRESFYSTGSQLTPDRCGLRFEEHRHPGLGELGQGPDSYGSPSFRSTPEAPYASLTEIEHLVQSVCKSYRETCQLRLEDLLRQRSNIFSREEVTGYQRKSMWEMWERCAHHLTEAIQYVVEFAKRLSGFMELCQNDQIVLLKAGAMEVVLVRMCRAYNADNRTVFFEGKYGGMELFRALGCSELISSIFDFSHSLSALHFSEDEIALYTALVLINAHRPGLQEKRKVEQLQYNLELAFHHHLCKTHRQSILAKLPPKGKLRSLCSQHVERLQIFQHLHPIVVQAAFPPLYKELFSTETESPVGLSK

[9] = biological target: T8, PXR (NR1I2) (Homo sapiens, UniProt O75469); test: Agonist activity at human PXR transfected in HEK293 cells after 24 hrs by luciferase reporter gene assay relative to T0901317; format: cell-based; conditions: HEK293 cells transfected with human PXR, read-out: Efficacy
T8 sequence (O75469 whole entry): T4 sequence (O75469 whole entry)

[10] = biological target: T3, Bile acid receptor; test: Partial agonist activity at human FXR transfected in HEK293 cells after 24 hrs by luciferase reporter gene assay; format: cell-based
[11] = biological target: T9, Bile acid receptor (Homo sapiens) (UniProt Q96RI1); test: Partial agonist activity at human FXR transfected in HEK293 cells after 24 hrs by luciferase reporter gene assay relative to T0901317; format: cell-based
T9 sequence (whole entry): T3 sequence (Q96RI1 whole entry)

Compound	logP [1]	EC50 [2]	EC50 [3]	EC50 [4]	EC50 ([5]; hek293)	IC50 [6]	IC50 [7]	IC50 ([8]; hek293)	Emax at 24 h [9] [%]	pEC50 ([5]; read-out: EC50)	pIC50 ([6]; read-out: IC50)	pIC50 ([7]; read-out: IC50)	pIC50 ([8]; read-out: IC50)	pEC50 [10]	Efficacy [11] [%]
CC(C)(O)c1ccc(N(CC(F)(F)F)S(=O)(=O)c2ccccc2)cc1	3.7	Not Active	Not Active	Not Active	Not Active	Not Active	Not Active	Not Active							
CO[C@H]1/C=C/O[C@@]2(C)Oc3c(C)c(O)c4c(O)c(c(/C=N/N5CCN(C)CC5)c(O)c4c3C2=O)NC(=O)/C(C)=C\C=C\[C@H](C)[C@H](O)[C@@H](C)[C@@H](O)[C@@H](C)[C@H](OC(C)=O)[C@@H]1C [RIFAMPIN]									75						
C[Si](C)(O)c1ccc(N(CC(F)(F)F)S(=O)(=O)c2ccccc2)cc1	4.23	Not Active	Not Active						61	6.06	4.28	4.22	4.37	4.96	23
O=S(=O)(c1ccccc1)N(CC(F)(F)F)c1ccc(C(O)(C(F)(F)F)C(F)(F)F)cc1 [T091317]	5.38					Not Active	Not Active								
